Data: patent US20240246908A1 (ORION CORPORATION, priority 2021, published 2024)

Tested on: YAP-TEAD
Assay: TEAD inhibition, Hippo Pathway TEAD Reporter MCF-7 luciferase assay
Type: cell-based
Conditions: Homo sapiens, MCF7, 24 h, Hippo Pathway TEAD Reporter MCF-7 cells, luciferase activity after 24 h; read-out: IC50 of the test compounds on YAP-TEAD inhibition (Group)
Method in brief: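 IC50 derived from ONE-Glo luciferase luminescence after 24 h compound exposure (11 concentrations in quadruplicate, 0.1% DMSO control). Reporter: MCF-7 line expressing firefly luciferase under TEAD elements, constitutively activated by nuclear YAP1.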

SMILES | IC50 [nM]
COc1ccc(Oc2ccc(C(F)(F)F)cc2)cc1NC(=O)[C@@H]1CN(C)C(=O)N1 [Compound 332, (S)—N-(2-Methoxy-5-(4-(trifluoromethyl)phenoxy)phenyl)-1-methyl-2-oxo-imidazolidine-4-carboxamide] | 301 to 2000
COCC(=O)N1C(=O)CC[C@H]1C(=O)Nc1cc(Oc2ccc(C(F)(F)F)cc2)ccc1OC [Compound 333, (S)—N-(2-Methoxy-5-(4-(trifluoromethyl)phenoxy)phenyl)-1-(2-methoxyacetyl)-5-oxopyrrolidine-2-carboxamide] | 301 to 2000
COc1ccc(Oc2ccc(C(F)(F)F)cc2)cc1NC(=O)CC1C(=O)N(C)C(=O)N1C (centres unmarked) [Compound 341, 2-(1,3-Dimethyl-2,5-dioxoimidazolidin-4-yl)-N-(2-methoxy-5-(4-(trifluoro-methyl)phenoxy)phenyl)acetamide] | 301 to 2000
COc1ccc(Oc2ccc(C(F)(F)F)cc2)cc1NC(=O)[C@@H]1CN(C)C(=O)N1C(C)=O [Compound 342, (S)-3-Acetyl-N-(2-methoxy-5-(4-(trifluoromethyl)phenoxy)phenyl)-1-methyl-2-oxoimidazolidine-4-carboxamide] | 50 to 300
COc1ccc(Oc2ncc(C(F)(F)F)cc2F)cc1NC(=O)[C@@H]1CN(C)C(=O)N1C(C)=O [Compound 343, (S)-3-Acetyl-N-(5-((3-fluoro-5-(trifluoromethyl)pyridin-2-yl)oxy)-2-methoxy-phenyl)-1-methyl-2-oxoimidazolidine-4-carboxamide] | 301 to 2000
COc1ccc(Oc2ccc(C(F)(F)F)cn2)cc1NC(=O)C1CNC(=O)C1 (centres unmarked) [Compound 344, N-(2-Methoxy-5-((5-(trifluoromethyl)pyridin-2-yl)oxy)phenyl)-5-oxopyrrolidine-3-carboxamide carboxamide] | 301 to 2000
COc1ccc(Oc2ccc(C(F)(F)F)cn2)cc1NC(=O)[C@@H]1CN(C)C(=O)N1C [Compound 346, (S)—N-(2-Methoxy-5-((5-(trifluoromethyl)pyridin-2-yl)oxy)phenyl)-1,3-dimethyl-2-oxoimidazolidine-4-carboxamide] | 50 to 300
COCC(=O)N1CCC[C@@H]1C(=O)Nc1cc(Oc2ccc(C(F)(F)F)cc2)ccc1OC [Compound 347, (R)—N-(2-Methoxy-5-(4-(trifluoromethyl)phenoxy)phenyl)-1-(2-methoxyacetyl)-pyrrolidine-2-carboxamide] | 301 to 2000
COc1ccc(Oc2ccc(C(F)(F)F)cc2Cl)cc1NC(=O)C1CCC(=O)N1 (centres unmarked) [Compound 350, N-(5-(2-Chloro-4-(trifluoromethyl)phenoxy)-2-methoxyphenyl)-5-oxopyrrolidi-ne-2-carboxamide] | 50 to 300
COc1ccc(Oc2ccc(CF)cc2)cc1NC(=O)[C@@H]1CNC(=O)N1C [Compound 353, (S)—N-(5-(4-(Fluoromethyl)phenoxy)-2-methoxyphenyl)-3-methyl-2-oxoimidazolidine-4-carboxamide] | 301 to 2000
COC(=O)CN1C(=O)CCC1C(=O)Nc1cc(Oc2ccc(C(F)(F)F)cc2)ccc1OC (centres unmarked) [Compound 354, Methyl 2-(2-((2-methoxy-5-(4-(trifluoromethyl)phenoxy)phenyl)carbamoyl)-5-oxopyrrolidin-1-yl)acetate] | 301 to 2000

The next lines start with the values.

IC50 [nM] | SMILES
50 to 300 | COCC(=O)N1C(=O)CCC1C(=O)Nc1cc(Oc2cc(C(F)(F)F)ccn2)ccc1OC (centres unmarked) [Compound 331, N-(2-Methoxy-5-((4-(trifluoromethyl)-pyridin-2-yl)oxy)phenyl)-1-(2-methoxyacetyl)-5-oxopyrrolidine-2-carboxamide]
50 to 300 | COCC(=O)N1C(=O)CCC1C(=O)Nc1cc(Oc2ncc(C(F)(F)F)cc2F)ccc1OC (centres unmarked) [Compound 334, N-(5-((3-Fluoro-5-(trifluoromethyl)pyridin-2-yl)oxy)-2-methoxyphenyl)-1-(2-methoxyacetyl)-5-oxopyrrolidine-2-carboxamide]
< 50 | COc1ccc(Oc2ccc(C(F)(F)F)cc2)cc1NC(=O)C1CNC(=O)C1 (centres unmarked) [Compound 335, N-(2-Methoxy-5-(4-(trifluoromethyl)phenoxy)phenyl)-5-oxopyrrolidine-3-carboxamide]
50 to 300 | COCC(=O)N1CCC[C@H]1C(=O)Nc1cc(Oc2ccc(C(F)(F)F)cc2)ccc1OC [Compound 336, (S)—N-(2-Methoxy-5-(4-(trifluoromethyl)phenoxy)phenyl)-1-(2-methoxyacetyl)-pyrrolidine-2-carboxamide]
50 to 300 | COc1ccc(Oc2ccc(C(F)(F)F)cc2)cc1NC(=O)[C@@H]1CCCN1CC(N)=O [Compound 337, (S)-1-(2-Amino-2-oxoethyl)-N-(2-methoxy-5-(4-(trifluoromethyl)phenoxy)-phenyl)pyrrolidine-2-carboxamide]
< 50 | COc1ccc(Oc2ccc(Cl)c(F)c2)cc1NC(=O)[C@@H]1CNC(=O)N1C [Compound 338, (S)—N-(5-(4-Chloro-3-fluorophenoxy)-2-methoxyphenyl)-3-methyl-2-oxo-imidazolidine-4-carboxamide]
< 50 | COc1ccc(Oc2ncc(C(F)(F)F)cc2F)cc1NC(=O)[C@@H]1CNC(=O)N1C [Compound 339, (S)—N-(5-((3-Fluoro-5-(trifluoromethyl)pyridin-2-yl)oxy)-2-methoxyphenyl)-3-methyl-2-oxoimidazolidine-4-carboxamide]
< 50 | COc1ccc(Oc2ccc(C(F)F)cc2)cc1NC(=O)[C@@H]1CNC(=O)N1C [Compound 340, (S)—N-(5-(4-(Difluoromethyl)phenoxy)-2-methoxyphenyl)-3-methyl-2-oxo-imidazolidine-4-carboxamide]
< 50 | COc1ccc(Oc2ncc(C(F)(F)F)cc2Cl)cc1NC(=O)[C@@H]1CNC(=O)N1C [Compound 345, (S)—N-(5-((3-Chloro-5-(trifluoromethyl)pyridin-2-yl)oxy)-2-methoxyphenyl)-3-methyl-2-oxoimidazolidine-4-carboxamide]
< 50 | COc1ccc(Oc2cccc(Cl)c2)cc1NC(=O)[C@@H]1CNC(=O)N1C [Compound 348, (S)—N-(5-(3-Chlorophenoxy)-2-methoxyphenyl)-3-methyl-2-oxoimidazolidine-4-carboxamide]
< 50 | COc1ccc(Oc2ccc(C(F)(F)F)cc2)cc1NC(=O)C1CC(=O)N(C)C1 (centres unmarked) [Compound 349, N-(2-Methoxy-5-(4-(trifluoromethyl)phenoxy)phenyl)-1-methyl-5-oxo-pyrrolidine-3-carboxamide]
< 50 | CN1C(=O)NC[C@H]1C(=O)Nc1cc(Cl)cc(Oc2ccc(C(F)(F)F)cn2)c1 [Compound 351, (S)—N-(3-Chloro-5-((5-(trifluoromethyl)pyridin-2-yl)oxy)phenyl)-3-methyl-2-oxoimidazolidine-4-carboxamide]
< 50 | CN1C(=O)CCC1C(=O)Nc1cc(Cl)cc(Oc2ccc(C(F)(F)F)cn2)c1 (centres unmarked) [Compound 352, N-(3-Chloro-5-((5-(trifluoromethyl)pyridin-2-yl)oxy)phenyl)-1-methyl-5-oxopyrrolidine-2-carboxamide]
< 50 | COc1ccc(Oc2ccc(C(F)(F)F)cc2)cc1NC(=O)[C@@H]1CNC(=O)C1 [Compound 355, (S)—N-(2-Methoxy-5-(4-(trifluoromethyl)phenoxy)phenyl)-5-oxopyrrolidine-3-carboxamide]
< 50 | COc1ccc(Oc2ccc(Cl)cc2)cc1NC(=O)[C@@H]1CNC(=O)N1C [Compound 356, (S)—N-(5-(4-Chlorophenoxy)-2-methoxyphenyl)-3-methyl-2-oxoimidazolidine-4-carboxamide]
